These results are taken from US20060293351A1, “Promotion of wound healing” (priority 1999, published 2006).

The test system of data set [1] is skin wound. In words: Wound strength (bursting point, Instron tensiometer). Format: in vivo, rats. Particulars: irradiated or not; one or six injections. As for the experimental part: Wound strength was assessed by preparing rats substantially as described above, except that one group of rats (not irradiated) only received one injection of Halofuginone after wounding. The strength of wounds was measured as follows. First, a square of skin which was approximately 20 mm long and 16 mm wide, and which included the main part of the wound, was excised from sacrificed rats. Next, the skin was cut, perpendicular to the wound, to yield 7 strips of skin, each of which was 2 mm wide. The skin strips were secured between paper reinforcement frames and loaded on an Instron tensiometer for stretching at a constant rate of 25 mm/min. The bursting point was then recorded.

Data set [2] deals with T50 bladder carcinoma bearing mice. Nature of the data set: Wound healing in mice implanted with T50 bladder carcinoma tumors. Particulars: diet containing 10 mg/kg or 5 mg/kg, 3 days prior to and 2 weeks after cell injection. It counts as in vivo, C3H mice. The protocol: Similar visual results were obtained with mice implanted with T50 bladder carcinoma tumors (FIG. 4). C3H mice were divided into two groups of 6 mice each. The experimental group received a diet containing either 10 mg/kg or 5 mg/kg of Halofuginone 3 days prior to the injection of T50 bladder carcinoma cells and during 2 weeks after. […] The right side received 0.4*10^5 cells, and the left side received 2*10^5 cells. The experiment ended at day 17. FIG. 4 is a photograph of representative bladder carcinoma bearing mice which were untreated (top) or treated (bottom) with Halofuginone. […] Halofuginone was clearly able to promote wound healing in mice implanted with bladder carcinoma tumors.

For data set [3], the system named is collagen. In words: Collagen content at the stricture site (Sirius red staining). It counts as in vivo, rats. The protocol:
The experiments were performed as follows. First, urethral catherization was performed on tile rats with a 23 G Quik-Cath (Baxter, Ireland) sheath. A spinal needle was inserted into the sheath, and was used to apply a coagulation current at a level of 10 W to the outer end of the needle for 1 second at three locations, 8, 10 and 12 mm from the meatus, in order to produce urethral strictures. Halofuginone was given for 7 days starting at the day of stricture formation, either orally at concentrations of 1 ppm and 5 ppm in the diet, or by injection of 0.03% Halofuginone dissolved in 2% lignocaine directly into the urethra once a day. After 21 days, the rats were sacrificed and the sutures were reopened to determine the level of urethral stricture formation, at which time biopsies of the tissue were taken. The tissue was sectioned so that histological studies could be performed. Briefly, the tissue samples were collected into phosphate-buffered saline (PBS) and fixed overnight in 4% paraformaldehyde in PBS at 4° C. Serial 5 μm sections were prepared after the samples had been dehydrated in graded ethanol solutions, cleared in chloroform and embedded in Paraplast. Differential staining of collagenous and non-collagenous proteins was performed with 0.1% Sirius red and 0.1% fast green as a counter-stain in picric acid. […]

The subject of data set [4] is collagen type III. In words: Collagen type III immunohistochemistry at the stricture site. Particulars: diet containing Halofuginone after coagulation current treatment. It counts as in vivo, rats. The protocol: Immunohistochemistry with antibodies to collagen type III was performed on biopsies taken from control, untreated rats, rats treated with coagulation current alone and rats fed a diet containing Halofuginone after coagulation current treatment. […] The experimental method was as follows. Rats were treated and sections of biopsy tissue were prepared as described previously in Example 4. Immunohistochemistry was performed with primary antibodies against collagen type III (BioGenex. San Ramon, Calif., USA) and a Histomouse SP kit (Zymed Laboratories Inc., South San Francisco, Calif., USA) for the secondary antibodies. The primary antibodies were used in a 1:1000 dilution and detection was performed with the Histomouse SP kit according to the instructions of the manufacturer.

The subject of data set [5] is fibroblasts derived from rat urethra. In words: cells. It counts as cell-based. As for the experimental part:
Urethral fibroblasts were obtained from three normal male rats, and were processed under sterile conditions. The urethra was cut into 1-2 mm pieces and rinsed several times in a solution containing 0.2 ml/10 ml penicillin/streptomycin and 50 micrograms/ml gentamycin. Each piece of urethra was placed in a 1 ml well of a 24 well plate (Greiner Labortchnik, Germany). Each well was filled with DMEM (Dulbecco's Modified Eagle's Medium), containing […] of D-glucose. 25% FCS (fetal calf serum), 0.1 ml/10 ml penicillin/streptomycin, 0.1 ml/10 ml glutamine. 50 micrograms/ml gentamycin and 2.5 micrograms/ml amphotericin B. The wells were incubated in an incubator containing 5% CO2 at 37° C. Half of the medium was replaced after 10 days. Two to three days later the cultures were trypsinized with trypsin-EDTA medium. The content of each pair of wells was combined, resuspended in DMEM and placed into one 250-ml flask containing 5 ml of medium. When the cell cultures reached confluency, they were transferred to new flasks with a 1:5 ratio of old to new medium. The concentration of FCS was then decreased to 10%.
For the evaluation of the synthesis of CDP and NCDP, cells were incubated for 24 hours with various concentrations of Halofuginone in 0.5 m glutamine-free DMEM containing 5% FCS, ascorbic acid (50 micrograms/ml), β-aminopropionitrile (50 micrograms/ml) and 2 micro-curies of [^3H]proline. At the end of the incubation period, the medium was decanted and incubated with or without collagenase for 18 hours, followed by TCA precipitation. The amount of radiolabeled collagen was estimated as the difference between total [^3H]proline containing proteins and protein remaining after collagenase digestion.

For data set [6], the system named is collagen α1(I) gene. Nature of the data set: Northern blot of collagen α1(I) gene in urethral fibroblasts. It counts as cell-based, rat. Particulars: Northern blot analysis. The protocol:
Next, total RNA was isolated using the guanidinium-thiocyanate-phenol technique (Chomczynski, P. and N. Sacchi, Anal. Biochem., 162:156, 1987). RNA was subjected to 1% agarose denaturing gel electrophoresis, followed by blotting onto a nylon filter (GeneScreen Plus, New England Nuclear, Boston, Mass., USA). The probe for the collagen α1(I) gene was labeled using the random primer procedure with a commercial kit (Boehringer, Germany). Hybridization was performed overnight at 40° C. in a solution containing 10% dextran sulfate, 1% SDS, 1 M NaCl, 40% formamide and […] denatured herring sperm DNA. Hybridization was followed by two 30-minute washes in 2×SSC (1×SSC contains 0.15 M NaCl and 0.015 M sodium citrate), 1% SDS, and two 20 minute washes in 1×SSC, 0.1% SDS. The filters were exposed to X-ray film (Agfa-Curix) at −70° C., using intensifying screens.

For data set [7], the system named is chickens. Particulars: in vivo; cited from earlier work.

Molecules are shown by their SMILES.

The inhibition is how much of the control response was suppressed.

As for `O=C(CC1NCCC[C@H]1O)Cn1cnc2cc(Br)c(Cl)cc2c1=O` (stereo partly shown) [Halofuginone], in data set [1], the wound strength entry is “did not reduce wound strength”. Moreover, the wound healing result in data set [2] was “greater wound healing”. For the same compound, the “amount of collagen in the biopsies” value in data set [3] (given locally (FIG. 7D)) and in data set [3] (given orally (FIG. 7C)) was “decreased the amount of collagen” each time. The “levels of collagen type III” value in data set [4] is on record as “No significant changes”. The number of cells result in data set [5] is listed as “did not affect”. Besides, in data set [5] (24 hours incubation), the “appearance of non-collagenase digestible proteins (NCDP)” value is recorded as “did not affect”. In addition, in data set [5] (Rattus norvegicus, Fibroblast, 10^−8 M Halofuginone, 24 hours, read-out: inhibition of the levels of collagenase-digestible proteins (CDP)), the inhibition at 0.01 µM stood at 40%. The “expression of the collagen α1(I) gene” value in data set [6] is “specifically decreased the expression”. In addition, the skin tearing result in data set [7] is given as “increased skin tearing”.
